Laboratory results taken from patent US9878041B2, “Cyanoacrylate tissue adhesives” (Adhezion Biomedical, LLC, priority 2007, dated 2018).

Columns and labels:
[1] = test system: Human dermal fibroblast (HDF) cells; assay: In vitro cytotoxicity of adhesive-conditioned media (MTT assay); assay type: cell-based; conditions: ACM collected at 2 days; HDF cultured 2 days; FIG. 9
Method: 2 μl of various CA formulations were applied on thin collagen films in 12 well plates and allowed to polymerize completely overnight at room temperature. One ml of […] (DMEM) including 10% Serum and 1% Penicillin/Streptomycin was added into each well and incubated at 37° C. in a humidified CO2 incubator to simulate adhesive degradation. Media samples were collected at 2, 7, and 14 days and these adhesive-conditioned media (ACM) were stored at −20° C. until use. Human dermal fibroblast (HDF) cells were seeded in new 12-well culture plates at a density of 8×10^4 cells/well and cultured for 24 hours to allow cell attachment. The media was replaced with the stored ACM and cultured for 2 days at 37° C. to evaluate the in vitro cytotoxicity of the various CA derivatives. Cell cytotoxicity by the degraded CA adhesives in ACM was evaluated by MTT assay. The principle of this assay is the addition of a dye which is degraded by enzymes present in living cells, resulting in the formation of a colored product. The product concentration, which is generally directly proportional to the number of viable cells, is assayed by spectrophotometry.

[2] = test system: hind limb muscles of adult Sprague-Dawley rats; assay: In vivo biocompatibility and degradation, macroscopic and IHC, incision closure
From the text: Small surgical incisions (0.2 cm in depth, 1 cm in length) were made in both hind limb muscles of adult Sprague-Dawley rats (n=4). One incision was closed by 1 drop of various cyanoacrylate formulations dispensed through a surgical syringe needle (25 G) and the other was closed by absorbable suture (VICRYL, Ethicon) with and without injection of equivalent volumes of PEG included in cyanoacrylate formulations as controls. In order to ensure proper identification of the injury sites, a single non-absorb-able suture was placed adjacent to each repaired incision site.
At 7 days, 4 weeks, and 12 weeks post-surgery, tissue explants containing the repaired incision sites and surrounding muscle tissue were retrieved. The explants were photographed to document the macroscopic tissue response to the various cyanoacrylate formulations and suture controls (FIGS. 3A-3H (7 days), 4A-4H (4 weeks), and 5A-5H (12 weeks)). Identification of specific cells types associated with wound healing and inflammation was performed by histological sectioning and immunohistochemical (IHC) staining. Tissue explants were embedded in Optimal cutting temperature (OCT) compound and sectioned perpendicular to the surface of the repaired muscle tissue. Sections ([…] thick) were transferred to glass microscope slides, fixed with methanol, permeabilized with 0.025% Triton in PBS solution, and stained with primary antibodies directed against vimentin (fibroblasts) and rat macrophages, and Alexa-594 conjugated secondary antibodies. DAPI mounting media was used to counterstain all cellular nuclei. Samples were imaged by fluorescence microscopy (FIGS. 6A-6P, 7A-7P, 8A-8P). Specific cell types are identified in red, sutures and various cyanoacrylate adhesives are shown in green, and cellular nuclei are shown in blue. […]

Escherichia coli = assay: Antibacterial activity by agar diffusion method; assay type: cell-based; parameters: key: c: Inhibition of growth not observed; conditions: 10 mg sample
Method: Antibacterial activity of polymyxin B-loaded PBCA nanoparticles was measured indirectly by the agar diffusion method. 30 ml of nutrient agar was added into each of four culture plates (90 mm diameter, 15 mm high). After solidifying, a cylindrical hole (13 mm in diameter) was made in the center of the plate and the contents were removed. 10 mg of polymyxin B, PBCA nanoparticles, and two polymyxin B-loaded PBCA nanoparticles (Poly BIPBCA-1 and 2) were added into a hole of each plate, respectively and a few drops of molten agar were added to fix the samples. The plate were inoculated with Escherichia coli and incubated at 37° C. for 24 hours and the zone of inhibition was determined (FIGS. 13A-13D).
To evaluate the duration of antibacterial activity of each sample, the content of each hole was removed after 24 hours of incubation and transferred to a hole of a freshly prepared plate, incubated again for 24 hours and the zone of inhibition measured. This procedure was continuously repeated until the inhibition of growth was no longer observed.

[3] = In vitro accelerated degradation study of cured adhesive films; assay type: physicochemical; conditions: thin films in 0.05N NaOH, 37° C., 3, 7, 14 and 21 days; FIG. 1
Method: In vitro accelerated degradation studies have been performed to evaluate the degradation rate of various cyanoacrylate adhesives formulated with PEG and without PEG. 20 μl of cyanoacrylate (CA) derivatives and CA derivatives/PEG (MW=600) formulations were spread as a thin layer on the glass microscope slides and allowed to cure overnight at room temperature. […] The films were collected at 3, 7, 14, and 21 days and washed with distilled water two times. The washed films were freeze-dried and weighed (W1) (n=3). […] 2. Tissue Bond Strength Study

Human dermal fibroblasts = assay: Cell adhesion to polymerized cyanoacrylates (live/dead staining); assay type: cell-based; conditions: 48 hours culture; FIG. 10
Method: 2 μl aliquots of various cyanoacrylate formulations with and without PEG were applied to thin collagen films in 24 well plates and allowed to cure overnight at room temperature. Human dermal fibroblasts were seeded on the collagen film/polymerized adhesive surfaces at 8×10^4 cells/well and cultured for 48 hours. The cells were stained with fluorescein diacetate and propidium iodide to visualize live (green) and dead (red) cells respectively. FIGS. 10A (OCA+MCA), 10B (OCA+MCA/PEG), 10E (MCA), and 10F (MCA/PEG) are phase contrast images (black and white) showing the interface between the cyanoacrylate adhesives and the surrounding collagen films and corresponding fluorescent images FIGS. 10C (OCA+MCA), 10D (OCA+MCA/PEG), 10G (MCA), and 10H (MCA/PEG) showing the location of adherent cells.

[4] = 4 weeks post-surgery, one value per rat
[5] = 7 days post-surgery, one value per rat
[6] = 7 days post-surgery, one value per rat (Rat No. 1-4), star grades not defined
[7] = Table IV, 4 weeks post-surgery (12 weeks), one value per rat

Compound	cytotoxicity of adhesive-conditioned media (% cell viability) [1]	Vessel formation [2, 4]	macroscopic inflammation and swelling of tissue explants ([2]; 7 days post-surgery)	Vessel formation [2, 5]	Degree of inflammation [2, 6]	Degree of inflammation [2, 7]	Vessel formation [2, 7]	Inhibition zone: Diameter (mm) (Escherichia coli; day 1, includes original 13 mm sample size)	Inhibition zone: Diameter (mm) (Escherichia coli; day 2 (sample moved to fresh plate every 24 hours), includes 13 mm sample size)	Inhibition zone: Diameter (mm) (Escherichia coli; day 3, includes 13 mm sample size)	Inhibition zone: Diameter (mm) (Escherichia coli; day 4, includes 13 mm sample size)	Inhibition zone: Diameter (mm) (Escherichia coli; day 5, includes 13 mm sample size)	Inhibition zone: Diameter (mm) (Escherichia coli; day 6)	% degradation in vitro [3]	fibroblast adhesion to polymerized adhesive surface (Human dermal fibroblasts)	Degree of inflammation [2, 4]	No. of macrophages ([2]; Table IV, 4 weeks post-surgery (12 weeks), one value per rat, IHC)
C=C(C#N)C(=O)OCCCCCCCC [OCA, octylcyanoacrylate]	not cytotoxic except for the ACM from OCA	no	mild inflammation and swelling	no	no	no	no										
Polymyxin B								36 mm	38.3 mm	28 mm	25.1 mm	22 mm	c				
methoxyisopropylcyanoacrylate [MCA]		no		no	no	no	no							significantly increased degradation	readily adhered in large numbers	no	0
